Where two headings read alike, the source gives them in different places. Ends that are not written are not given here.

Results on one sequence are retold here after patent US20260115265A1, “METHODS AND COMPOSITIONS FOR PREVENTING OR TREATING FOOD ALLERGIES” (Revolo Biotherapeutics Limited, priority 2022, published 2026).

The nature of this data set: Serum/plasma pharmacokinetics (half-life). Format: in vivo.

As for DGSVVVNKVSELPAGHGLNVNTLSYGDLAAD ['1104], the half-life was 10 to 15 min (in vivo, across species, read-out: half-life) and ~15 min (serum, read-out: serum PK).
